Measurements: patent US12622910B2, “Inhibitors of Bruton's tyrosine kinase and methods of their use” (Janssen Pharmaceutica NV, priority 2021, dated 2026)
Like-named read-outs stand apart in the source and are kept apart here.

Experiment: Phase 1 first-in-human study, plasma pharmacokinetics
Assay type: in vivo
Details: for Tmax / Cmax / AUC(0-t) / half-life / AUC(0-inf): plasma
Description: Safety, tolerability, PK, and BTKO were assessed for six doses of compound of Formula (III) oral solution (4, 12, 36, 100, 200, 400 mg) in participants under fasted conditions. The SAD part comprised 10 cohorts of 8 participants each (FIG. 1). In each cohort receiving compound of Formula (III) oral solution (Cohorts 1-9), 6 participants were randomized to receive compound of Formula (III) and 2 to receive placebo. All participants in Cohort 10 received compound of Formula (III) as an oral capsule. All 10 cohorts included 2 sentinel participants who were dosed ˜24 hours prior to the rest of the cohort. In cohorts receiving compound of Formula (III) oral solution, 1 sentinel participant received compound of Formula (III) and the other received placebo.
Six male escalating dose cohorts received a single oral dose of 4, 12, 36, 100, 200, 400 mg compound of Formula (III) or placebo solution under fasted conditions. Gender effects were assessed in 2 female cohorts whose participants received either a 36 or 100 mg dose of compound of Formula (III) or placebo as an oral solution under fasted conditions. Food effects were evaluated in a male cohort receiving compound of Formula (III) 100 mg or placebo as an oral solution after a high-fat breakfast.
Safety, tolerability, and PK of a solid dose formulation of compound of Formula (III) were assessed in an additional male cohort (Cohort 10) that received 3×35 mg (105 mg) of compound of Formula (III) in the fasted state. Since all the participants received the same dose of compound of Formula (III), this cohort was not blinded.
Safety, tolerability, PK, and BTKO following multiple compound of Formula (III) doses were evaluated in 3 dose escalation cohorts with a total of 18 participants (males: 9, females: 9) receiving active study drug. In each cohort, 3 males and 3 females were randomized to receive 36 mg once-daily (QD), 100 mg QD, or 200 mg QD compound of Formula (III) oral solution and 3 participants (males: 2; female: 1) to receive placebo. Two male participants in each cohort served as sentinel participants: one received compound of Formula (III) and other received placebo ˜48 hours prior to other participants in the cohort. All safety and tolerability data (through the follow-up visit), PK data (through at least 24 hours after last dose administration), and all available PD data were reviewed from each cohort before a decision was made to dose escalate.
Sample collection—For the PK assessment of compound of Formula (III), venous blood samples (2 to 4 mL each) were collected predose and at 15 min, 0.5, 1, 1.5, 2, 2.5, 3, 4, 6, 8, 12, 24, 36, 48, and 72 hours post-dose in Part 1. In Part 2, samples were collected predose and at 15 min, 0.5, 1, 1.5, 2, 2.5, 3, 4, 6, 8, 12 hours post-dose on day 1, predose and 1 hour post-dose on days 2-9, and predose and at 15 min, 0.5, 1, 1.5, 2, 2.5, 3, 4, 6, 8, 12, 24, 48, and 72 hours after the last dose on day 10. Plasma samples were analyzed to determine concentrations of compound of Formula (III) using a scientific validated, specific, and sensitive liquid chromatography-mass spectrometry (LC-MS/MS) method.
The PK analysis for the compound of Formula (III) samples was performed using a non-compartmental method with validated Phoenix® WinNonlin® (version 8.0, Certara L.P.).

[1] = 36 mg QD oral solution, fed, Day 10
[2] = 100 mg QD oral solution, fed, Day 10
[3] = 200 mg QD oral solution, fed, Day 10
[4] = female, human, po, 36 mg, single 36 mg oral solution, female fasted
[5] = female, human, po, 100 mg, single 100 mg oral solution, female fasted
[6] = male, human, po, 4 mg, single 4 mg oral solution, male fasted
[7] = male, human, po, 12 mg, single 12 mg oral solution, male fasted

SMILES: C=CC(=O)N[C@H]1CCC[C@H]1NC(=O)c1sc2nccc3c2c1NC(=O)N3c1cnc(CC(C)C)cc1C (atropisomer, axis not shown) [compound of Formula (III), N-((1R,2S)-2-Acrylamidocyclopentyl)-5-(S)-(6-isobutyl-4-methylpyridin-3-yl)-4-oxo-4,5-dihydro-3H-1-thia-3,5,8-triazaacenaphthylene-2-carboxamide]
- ARCmax [1]: 1.04
- Cmin [1]: 0.552 ng/mL
- ARCmax [2]: 0.968
- Cmin [2]: 1.51 ng/mL
- mean Cmax/Dose lower, capsule vs oral solution (105 mg capsule vs 100 mg solution): approximately 64%
- Ae% dose (200 mg QD oral solution, fed, Day 1): 0.234
- ARCmax [3]: 1.21
- Ae% dose [3]: 0.234
- CLR [3]: 0.186 L/h
- Cmin [3]: 4.96 ng/mL
- Tmax (both sexes, human, oral, Part 2, day 1, 36-200 mg QD, read-out: median tmax across doses): 1.25 to 1.77 h
- Cmax (both sexes, human, po, 36 mg, 36 mg QD oral solution, fed, Day 1): 193 ng/mL
- AUC(0-t) (both sexes, human, po, 36 mg, 36 mg QD oral solution, fed, Day 1, read-out: AUC0-24 h): 925 ng·h/mL
- Tmax (both sexes, human, po, 36 mg, 36 mg QD oral solution, fed, Day 1, read-out: tmax, median (min-max)): 1.5 h
- Cmax (both sexes, human, po, 36 mg, 36 mg QD oral solution, fed, Day 10): 199 ng/mL
- AUC(0-t) (both sexes, human, po, 36 mg, 36 mg QD oral solution, fed, Day 10, read-out: AUC0-24 h): 889 ng·h/mL
- half-life (both sexes, human, po, 36 mg, 36 mg QD oral solution, fed, Day 10, read-out: t1/2, dom (converted)): 1.5 h
- half-life (both sexes, human, po, 36 mg, 36 mg QD oral solution, fed, Day 10, read-out: t1/2, λz (converted)): 4.9 h
- Tmax (both sexes, human, po, 36 mg, 36 mg QD oral solution, fed, Day 10, read-out: tmax, median (min-max)): 2 h
- Cmax (both sexes, human, po, 100 mg, 100 mg QD oral solution, fed, Day 1): 464 ng/mL
- AUC(0-t) (both sexes, human, po, 100 mg, 100 mg QD oral solution, fed, Day 1, read-out: AUC0-24 h): 1820 ng·h/mL
- Tmax (both sexes, human, po, 100 mg, 100 mg QD oral solution, fed, Day 1, read-out: tmax, median (min-max)): 1.25 h
- Cmax (both sexes, human, po, 100 mg, 100 mg QD oral solution, fed, Day 10): 424 ng/mL
- AUC(0-t) (both sexes, human, po, 100 mg, 100 mg QD oral solution, fed, Day 10, read-out: AUC0-24 h): 1690 ng·h/mL
- half-life (both sexes, human, po, 100 mg, 100 mg QD oral solution, fed, Day 10, read-out: t1/2, dom (converted)): 1.8 h
- half-life (both sexes, human, po, 100 mg, 100 mg QD oral solution, fed, Day 10, read-out: t1/2, λz (converted)): 9.6 h
- Tmax (both sexes, human, po, 100 mg, 100 mg QD oral solution, fed, Day 10, read-out: tmax, median (min-max)): 1.53 h
- Cmax (both sexes, human, po, 200 mg, 200 mg QD oral solution, fed, Day 1): 719 ng/mL
- AUC(0-t) (both sexes, human, po, 200 mg, 200 mg QD oral solution, fed, Day 1, read-out: AUC0-24 h): 2560 ng·h/mL
- Tmax (both sexes, human, po, 200 mg, 200 mg QD oral solution, fed, Day 1, read-out: tmax, median (min-max)): 1.77 h
- Cmax (both sexes, human, po, 200 mg, 200 mg QD oral solution, fed, Day 10): 839 ng/mL
- AUC(0-t) (both sexes, human, po, 200 mg, 200 mg QD oral solution, fed, Day 10, read-out: AUC0-24 h): 3160 ng·h/mL
- half-life (both sexes, human, po, 200 mg, 200 mg QD oral solution, fed, Day 10, read-out: t1/2, dom (converted)): 1.9 h
- half-life (both sexes, human, po, 200 mg, 200 mg QD oral solution, fed, Day 10, read-out: t1/2, λz (converted)): 23.1 h
- Tmax (both sexes, human, po, 200 mg, 200 mg QD oral solution, fed, Day 10, read-out: tmax, median (min-max)): 2 h
- CL renal (both sexes, human, urine and plasma, 200 mg QD oral solution, fed, Day 1): 3.1 mL/min
- AUC(0-inf) [4]: 22.7 ng·h/mL
- Cmax [4]: 233 ng/mL
- AUC(0-t) (female, human, po, 36 mg, single 36 mg oral solution, female fasted, read-out: AUC0-24 h): 819 ng·h/mL
- AUC(0-t) (female, human, po, 36 mg, single 36 mg oral solution, female fasted, read-out: AUClast): 816 ng·h/mL
- half-life (female, human, po, 36 mg, single 36 mg oral solution, female fasted, read-out: t1/2, dom (converted)): 1.6 h
- half-life (female, human, po, 36 mg, single 36 mg oral solution, female fasted, read-out: t1/2, λz (converted)): 1.9 h
- Tmax (female, human, po, 36 mg, single 36 mg oral solution, female fasted, read-out: tmax, median (min-max)): 1 h
- AUC(0-inf) [5]: 1340 ng·h/mL
- Cmax [5]: 650 ng/mL
- AUC(0-t) (female, human, po, 100 mg, single 100 mg oral solution, female fasted, read-out: AUC0-24 h): 1420 ng·h/mL
- AUC(0-t) (female, human, po, 100 mg, single 100 mg oral solution, female fasted, read-out: AUClast): 1460 ng·h/mL
- half-life (female, human, po, 100 mg, single 100 mg oral solution, female fasted, read-out: t1/2, dom (converted)): 1.6 h
- half-life (female, human, po, 100 mg, single 100 mg oral solution, female fasted, read-out: t1/2, λz (converted)): 11.6 h
- Tmax (female, human, po, 100 mg, single 100 mg oral solution, female fasted, read-out: tmax, median (min-max)): 0.5 h
- AUC(0-inf) [6]: 155 ng·h/mL
- Cmax [6]: 43.5 ng/mL
- AUC(0-t) (male, human, po, 4 mg, single 4 mg oral solution, male fasted, read-out: AUC0-24 h): 157 ng·h/mL
- AUC(0-t) (male, human, po, 4 mg, single 4 mg oral solution, male fasted, read-out: AUClast): 154 ng·h/mL
- half-life (male, human, po, 4 mg, single 4 mg oral solution, male fasted, read-out: t1/2, dom (converted)): 1.6 h
- half-life (male, human, po, 4 mg, single 4 mg oral solution, male fasted, read-out: t1/2, λz (converted)): 1.6 h
- Tmax (male, human, po, 4 mg, single 4 mg oral solution, male fasted, read-out: tmax, median (min-max)): 1 h
- AUC(0-inf) [7]: 317 ng·h/mL
- Cmax [7]: 88 ng/mL
- AUC(0-t) (male, human, po, 12 mg, single 12 mg oral solution, male fasted, read-out: AUC0-24 h): 319 ng·h/mL
- AUC(0-t) (male, human, po, 12 mg, single 12 mg oral solution, male fasted, read-out: AUClast): 316 ng·h/mL
- half-life (male, human, po, 12 mg, single 12 mg oral solution, male fasted, read-out: t1/2, dom (converted)): 1.5 h
